pEC50, pIC50: −log10 of the molar value. Converted amounts (≈) assume the structure as drawn.
Legend:
RAW264.7 [1] = experiment: Anti-inflammatory activity in mouse RAW264.7 cells assessed as inhibition of LPS-induced TNFalpha production at 20 uM preincubated for 1 hr followed by LPS addition and measured after 24 hrs; assay type: functional; parameters: scale not given: the % may be the effect or the level left; settings: time 25 hrs
[2] = Immunosuppressive activity in Kunming mouse splenocyte assessed as reduction in ConA-stimulated T-lymphocytes proliferation incubated for 72 hrs by CCK-8 assay; assay type: functional, cell-based; settings: T-cell
Acetylcholinesterase = Acetylcholinesterase (Homo sapiens, UniProt P22303); experiment: Inhibition of human recombinant acetylcholinesterase using acetylthiocholine as substrate by spectrophotometric analysis
Acetylcholinesterase, sequence (P22303 whole entry): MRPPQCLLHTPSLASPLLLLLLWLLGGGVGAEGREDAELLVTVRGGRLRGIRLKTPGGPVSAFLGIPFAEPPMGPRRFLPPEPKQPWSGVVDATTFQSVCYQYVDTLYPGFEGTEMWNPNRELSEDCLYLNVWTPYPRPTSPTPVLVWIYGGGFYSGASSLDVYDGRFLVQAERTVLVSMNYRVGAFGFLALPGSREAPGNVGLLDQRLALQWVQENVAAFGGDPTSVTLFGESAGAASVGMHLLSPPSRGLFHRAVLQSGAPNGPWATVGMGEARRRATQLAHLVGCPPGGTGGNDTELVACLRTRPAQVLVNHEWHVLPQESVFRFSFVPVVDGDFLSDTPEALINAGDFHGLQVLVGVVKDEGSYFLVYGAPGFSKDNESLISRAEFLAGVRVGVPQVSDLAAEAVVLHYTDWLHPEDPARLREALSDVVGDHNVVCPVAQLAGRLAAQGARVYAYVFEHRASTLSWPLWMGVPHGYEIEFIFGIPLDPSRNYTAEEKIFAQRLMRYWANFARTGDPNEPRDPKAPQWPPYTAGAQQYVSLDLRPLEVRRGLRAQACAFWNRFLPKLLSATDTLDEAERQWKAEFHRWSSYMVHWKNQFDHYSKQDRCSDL

RAW264.7 [3] = experiment: Anti-inflammatory activity against mouse RAW264.7 cells assessed as inhibition of LPS-induced nitric oxide production at 50 uM preincubated for 2 hrs with compound followed by LPS-stimulation and measured after 24 hrs by Griess reagent based analysis; assay type: functional, cell-based
[4] = Antioxidant activity assessed as DPPH radical scavenging activity measured for 45 mins by spectrophotometric analysis; assay type: functional
[5] = Immunosuppressive activity in Kunming mouse splenocyte assessed as reduction in ConA-stimulated T-lymphocytes proliferation at 20 uM incubated for 72 hrs by CCK-8 assay relative to control; assay type: functional, T-cell; parameters: scale not given: the % may be the effect or the level left
RAW264.7 [6] = experiment: Antiinflammatory activity against mouse RAW264.7 cells assessed as inhibition of LPS-induced TNF-alpha secretion at 20 uM after 24 hrs by ELISA relative to control; assay type: functional; parameters: scale not given: the % may be the effect or the level left
RAW264.7 [7] = experiment: Antiinflammatory activity against mouse RAW264.7 cells assessed as inhibition of LPS-induced TNF-alpha secretion at 4 uM after 24 hrs by ELISA relative to control; assay type: functional; parameters: scale not given: the % may be the effect or the level left
[8] = Immunosuppressive activity in Kunming mouse splenocyte assessed as inhibition of LPS-induced B-lymphocytes proliferation at 20 uM incubated for 72 hrs by CCK-8 assay relative to control; assay type: functional; parameters: scale not given: the % may be the effect or the level left
Trypanosoma cruzi = experiment: Antitrypanosomal activity against Trypanosoma cruzi trypomastigotes infected in Swiss albino mouse assessed a s reduction in parasitic growth and measured after 24 hrs; assay type: functional, organism-based
Leishmania amazonensis = experiment: Antileishmanial activity against Leishmania amazonensis amastigotes assessed as inhibition of parasitic growth; assay type: functional, organism-based
[9] = Antioxidant activity assessed as DPPH radical scavenging activity measured after 30 mins; assay type: functional
[10] = target: T1, Prostaglandin G/H synthase 2 (Homo sapiens, UniProt P35354); experiment: Inhibition of human recombinant COX-2 using arachidonic acid as substrate preincubated for 15 mins followed by substrate addition and measured after 2 mins by fluorescence based analysis
T1 sequence (P35354 whole entry): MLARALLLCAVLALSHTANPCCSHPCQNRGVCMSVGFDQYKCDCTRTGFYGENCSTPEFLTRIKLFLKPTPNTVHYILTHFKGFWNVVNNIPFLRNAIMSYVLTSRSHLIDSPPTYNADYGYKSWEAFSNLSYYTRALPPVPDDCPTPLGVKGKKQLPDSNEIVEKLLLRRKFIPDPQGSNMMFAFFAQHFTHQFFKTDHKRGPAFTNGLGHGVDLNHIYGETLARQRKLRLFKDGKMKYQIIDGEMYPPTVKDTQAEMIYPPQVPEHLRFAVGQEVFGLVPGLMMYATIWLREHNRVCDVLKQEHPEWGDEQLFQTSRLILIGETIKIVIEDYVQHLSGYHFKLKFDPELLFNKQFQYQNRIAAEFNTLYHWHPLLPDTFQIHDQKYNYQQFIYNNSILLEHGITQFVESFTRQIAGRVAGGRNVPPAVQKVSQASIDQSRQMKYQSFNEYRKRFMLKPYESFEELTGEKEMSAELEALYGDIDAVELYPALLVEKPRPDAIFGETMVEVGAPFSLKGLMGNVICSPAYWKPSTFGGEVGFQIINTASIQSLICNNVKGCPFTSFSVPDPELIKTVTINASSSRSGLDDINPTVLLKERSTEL

RAW264.7 [11] = experiment: Antiinflammatory activity against mouse RAW264.7 cells assessed as inhibition of LPS-induced TNF-alpha production at 25 uM measured after 24 hrs by ELISA method relative to control; assay type: functional; parameters: scale not given: the % may be the effect or the level left
Staphylococcus aureus [12] = experiment: Antibacterial activity against methicillin-resistant Staphylococcus aureus […] assessed as bacterial growth inhibition measured after 24 hrs by CLSI based two-fold serial dilution method; assay type: functional
Staphylococcus aureus [13] = experiment: Antibacterial activity against methicillin-sensitive Staphylococcus aureus ATCC 29213 assessed as bacterial growth inhibition measured after 24 hrs by CLSI based two-fold serial dilution method; assay type: functional
Staphylococcus aureus [14] = experiment: Antibacterial activity against vancomycin-intermediate Staphylococcus aureus ATCC 700787 assessed as bacterial growth inhibition incubated for 24 hrs by CLSI based two-fold serial dilution method; assay type: functional
Nakaseomyces glabratus = experiment: Antifungal activity against Candida glabrata ATCC 15126 assessed as reduction in microbial growth incubated for 24 hrs by CLSI based broth micro-dilution method; assay type: functional
[15] = Antioxidant activity assessed as DPPH radical scavenging activity measured after 30 mins by UV-visible spectrophotometric analysis; assay type: functional
[16] = Antioxidant activity assessed as ABTS radical scavenging activity incubated for 30 mins by UV-visible spectrphotometric analysis; assay type: functional
[17] = target: Rho-associated protein kinase 1 (Homo sapiens, UniProt Q13464); experiment: Inhibition of ROCK1 (unknown origin) incubated for 1 hr by FRET based Z'-lyte assay
Rho-associated protein kinase 1, sequence (Q13464 whole entry): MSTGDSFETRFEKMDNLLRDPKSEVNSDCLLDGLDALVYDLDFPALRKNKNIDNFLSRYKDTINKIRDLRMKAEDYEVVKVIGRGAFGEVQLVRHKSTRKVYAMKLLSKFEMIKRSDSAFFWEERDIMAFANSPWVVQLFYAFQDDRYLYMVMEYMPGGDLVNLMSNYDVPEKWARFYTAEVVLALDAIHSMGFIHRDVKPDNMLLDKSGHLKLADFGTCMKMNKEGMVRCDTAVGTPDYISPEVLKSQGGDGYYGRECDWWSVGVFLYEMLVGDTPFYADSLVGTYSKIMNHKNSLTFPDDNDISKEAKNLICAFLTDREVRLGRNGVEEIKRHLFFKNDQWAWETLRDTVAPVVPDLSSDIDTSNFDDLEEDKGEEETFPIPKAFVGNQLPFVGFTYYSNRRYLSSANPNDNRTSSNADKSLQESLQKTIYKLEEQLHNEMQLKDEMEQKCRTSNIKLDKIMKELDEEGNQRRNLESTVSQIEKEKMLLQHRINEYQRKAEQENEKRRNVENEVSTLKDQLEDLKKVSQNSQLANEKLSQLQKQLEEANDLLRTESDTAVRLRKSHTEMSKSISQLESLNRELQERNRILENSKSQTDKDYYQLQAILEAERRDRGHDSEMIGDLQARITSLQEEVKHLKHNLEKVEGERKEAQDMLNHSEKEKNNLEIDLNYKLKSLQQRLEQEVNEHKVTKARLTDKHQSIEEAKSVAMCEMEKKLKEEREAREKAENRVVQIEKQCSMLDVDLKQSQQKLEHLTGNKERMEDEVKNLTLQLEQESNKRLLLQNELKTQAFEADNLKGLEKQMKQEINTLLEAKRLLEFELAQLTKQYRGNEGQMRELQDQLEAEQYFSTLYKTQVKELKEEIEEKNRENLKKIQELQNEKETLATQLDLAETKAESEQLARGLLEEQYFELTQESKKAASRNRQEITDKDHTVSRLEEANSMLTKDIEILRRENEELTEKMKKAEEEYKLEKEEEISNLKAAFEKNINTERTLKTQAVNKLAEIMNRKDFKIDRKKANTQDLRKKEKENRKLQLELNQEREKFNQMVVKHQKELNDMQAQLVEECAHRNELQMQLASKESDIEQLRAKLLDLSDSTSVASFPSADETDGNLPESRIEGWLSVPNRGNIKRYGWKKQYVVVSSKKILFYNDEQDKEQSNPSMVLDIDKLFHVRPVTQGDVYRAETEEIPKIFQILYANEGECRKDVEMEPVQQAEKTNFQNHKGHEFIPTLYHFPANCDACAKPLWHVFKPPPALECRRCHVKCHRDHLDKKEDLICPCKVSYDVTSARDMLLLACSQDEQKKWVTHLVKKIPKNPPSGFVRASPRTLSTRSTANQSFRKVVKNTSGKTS

[18] = target: Rho-associated protein kinase 2 (Homo sapiens, UniProt O75116); experiment: Inhibition of ROCK2 (unknown origin) incubated for 1 hr by FRET based Z'lyte assay
Rho-associated protein kinase 2, sequence (O75116 whole entry): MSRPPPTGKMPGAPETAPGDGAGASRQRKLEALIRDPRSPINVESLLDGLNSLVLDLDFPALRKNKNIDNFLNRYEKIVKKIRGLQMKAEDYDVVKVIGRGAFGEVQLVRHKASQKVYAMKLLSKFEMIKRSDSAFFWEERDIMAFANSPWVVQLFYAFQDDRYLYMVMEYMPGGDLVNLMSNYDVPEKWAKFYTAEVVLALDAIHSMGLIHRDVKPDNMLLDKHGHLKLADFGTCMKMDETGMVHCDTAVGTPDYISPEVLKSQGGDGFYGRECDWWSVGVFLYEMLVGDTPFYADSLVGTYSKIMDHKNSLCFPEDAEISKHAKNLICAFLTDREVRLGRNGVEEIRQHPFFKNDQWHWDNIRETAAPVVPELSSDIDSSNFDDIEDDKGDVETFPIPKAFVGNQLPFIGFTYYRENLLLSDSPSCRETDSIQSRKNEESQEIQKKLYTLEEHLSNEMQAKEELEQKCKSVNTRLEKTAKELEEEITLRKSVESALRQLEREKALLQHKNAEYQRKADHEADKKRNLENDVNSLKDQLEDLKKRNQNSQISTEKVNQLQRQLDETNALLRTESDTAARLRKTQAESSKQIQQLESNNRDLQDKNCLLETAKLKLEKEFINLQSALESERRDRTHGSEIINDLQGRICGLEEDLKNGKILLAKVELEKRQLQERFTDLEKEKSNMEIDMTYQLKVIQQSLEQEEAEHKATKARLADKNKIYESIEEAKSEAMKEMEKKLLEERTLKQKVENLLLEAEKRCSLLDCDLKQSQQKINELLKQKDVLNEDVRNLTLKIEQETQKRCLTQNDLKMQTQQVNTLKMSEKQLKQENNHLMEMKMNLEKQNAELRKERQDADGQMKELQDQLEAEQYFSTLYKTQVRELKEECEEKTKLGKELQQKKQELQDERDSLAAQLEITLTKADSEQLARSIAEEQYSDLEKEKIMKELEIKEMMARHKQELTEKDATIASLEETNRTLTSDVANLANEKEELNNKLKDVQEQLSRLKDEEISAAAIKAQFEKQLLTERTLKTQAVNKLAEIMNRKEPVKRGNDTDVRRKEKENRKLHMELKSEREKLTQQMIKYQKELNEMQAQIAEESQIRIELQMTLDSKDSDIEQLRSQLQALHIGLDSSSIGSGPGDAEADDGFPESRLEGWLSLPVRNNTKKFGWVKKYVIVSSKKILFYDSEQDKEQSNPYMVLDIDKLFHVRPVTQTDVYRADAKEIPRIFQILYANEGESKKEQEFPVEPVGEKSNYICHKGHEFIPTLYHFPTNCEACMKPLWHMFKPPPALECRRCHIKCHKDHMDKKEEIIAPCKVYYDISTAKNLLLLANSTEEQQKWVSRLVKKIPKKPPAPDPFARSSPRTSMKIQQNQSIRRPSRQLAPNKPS

RAW264.7 [19] = experiment: Antiinflammatory activity against LPS-induced mouse RAW264.7 cells assessed as maximal inhibition of TNF-alpha production at 10 to 100 nM incubated for 48 hrs by ELISA analysis relative to control; assay type: functional; parameters: scale not given: the % may be the effect or the level left; settings: dose 10-100 nM
CCF-STTG1 = experiment: Cytotoxicity against human CCF-STTGI assessed as reduction in cell viability measured after 48 hrs by MTT assay; assay type: functional, cell-based; settings: CCF-STTG1, 48 h
[20] = Cytotoxicity against human SHG-44 cells assessed as reduction in cell viability measured after 48 hrs by MTT assay; assay type: functional, cell-based; settings: SHG-44, 48 h
[21] = Cytotoxicity against human CHG-5 cells assessed as reduction in cell viability measured after 48 hrs by MTT assay; assay type: functional, cell-based; settings: CHG-5, 48 h
U-251 = experiment: Cytotoxicity against human U-251 cells assessed as reduction in cell viability measured after 48 hrs by MTT assay; assay type: functional, cell-based; settings: U-251, 48 h
HL-60 = experiment: Cytotoxicity against human HL-60 cells assessed as reduction in cell viability measured after 48 hrs by MTT assay; assay type: functional, cell-based; settings: HL-60, 48 h
SMMC-7721 = experiment: Cytotoxicity against human SMMC-7721 cells assessed as reduction in cell viability incubated for 48 hrs by MTT assay; assay type: functional, cell-based; settings: SMMC-7721, 48 h
SW480 = experiment: Cytotoxicity against human SW480 cells assessed as reduction in cell viability incubated for 48 hrs by MTT assay; assay type: functional, cell-based; settings: SW480, 48 h
RAW264.7 [22] = experiment: Antiinflammatory activity in LPS-induced mouse RAW264.7 cells assessed as reduction in COX-2 level at 100 uM pretreated for 1 hr followed by LPS stimulation and measured after 48 hrs by ELISA relative to control; assay type: functional; parameters: scale not given: the % may be the effect or the level left; settings: time 49 hrs
[23] = target: T1, Prostaglandin G/H synthase 2; experiment: Inhibition of human recombinant COX-2 using arachidonic acid as substrate preincubated with compound for 15 mins followed by substrate addition and measured after 15 mins by fluorescence based analysis
[24] = target: Tyrosine-protein kinase JAK3 (Homo sapiens, UniProt P52333); experiment: Inhibition of JAK3 (unknown origin) preincubated for 1 hr followed by substrate addition and measured after 1 hr in the presence of ATP by FRET-based Z'-Lyte assay
Tyrosine-protein kinase JAK3, sequence (P52333 whole entry): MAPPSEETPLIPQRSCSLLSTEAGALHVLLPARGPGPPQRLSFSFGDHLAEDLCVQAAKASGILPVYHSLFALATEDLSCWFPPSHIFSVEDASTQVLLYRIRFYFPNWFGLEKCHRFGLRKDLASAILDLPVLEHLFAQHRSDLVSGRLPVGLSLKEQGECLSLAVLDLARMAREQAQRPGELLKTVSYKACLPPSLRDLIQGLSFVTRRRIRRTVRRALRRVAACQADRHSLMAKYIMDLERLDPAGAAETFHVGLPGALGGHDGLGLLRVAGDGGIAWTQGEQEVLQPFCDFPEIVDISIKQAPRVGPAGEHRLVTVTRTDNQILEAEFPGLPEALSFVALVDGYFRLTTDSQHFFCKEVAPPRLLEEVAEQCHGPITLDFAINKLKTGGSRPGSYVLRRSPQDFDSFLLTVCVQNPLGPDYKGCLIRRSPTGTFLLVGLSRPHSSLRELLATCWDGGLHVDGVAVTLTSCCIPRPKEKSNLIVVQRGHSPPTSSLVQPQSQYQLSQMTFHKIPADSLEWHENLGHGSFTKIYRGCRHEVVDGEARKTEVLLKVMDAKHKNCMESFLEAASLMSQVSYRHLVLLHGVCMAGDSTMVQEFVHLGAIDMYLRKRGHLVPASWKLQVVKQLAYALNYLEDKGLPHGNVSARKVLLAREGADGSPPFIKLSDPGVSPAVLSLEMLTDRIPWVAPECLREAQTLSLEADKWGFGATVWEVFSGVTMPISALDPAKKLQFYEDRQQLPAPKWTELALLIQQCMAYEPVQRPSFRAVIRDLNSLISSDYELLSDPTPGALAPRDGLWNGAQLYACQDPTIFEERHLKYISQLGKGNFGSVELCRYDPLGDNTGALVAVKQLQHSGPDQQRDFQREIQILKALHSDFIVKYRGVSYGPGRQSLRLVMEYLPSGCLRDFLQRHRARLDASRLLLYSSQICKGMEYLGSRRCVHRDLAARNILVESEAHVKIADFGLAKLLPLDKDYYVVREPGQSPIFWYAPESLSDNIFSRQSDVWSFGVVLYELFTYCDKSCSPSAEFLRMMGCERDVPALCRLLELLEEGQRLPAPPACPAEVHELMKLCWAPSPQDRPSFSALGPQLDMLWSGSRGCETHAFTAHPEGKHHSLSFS

Compound: CC(=O)NCCc1cc(O)c(O)cc1S(C)(=O)=O
- Activity (RAW264.7 [1]): 52.77%
- pIC50 [2]: 4.48

Compound: O=C1NCCc2c1ccc(O)c2O
- pEC50 (Acetylcholinesterase): 4.18

Compound: O=C(O)[C@@H]1Cc2cc(O)c(O[C@@H]3O[C@H](CO)[C@@H](O)[C@H](O)[C@H]3O)cc2N1C(=O)/C=C/c1ccc(O[C@@H]2O[C@H](CO)[C@@H](O)[C@H](O)[C@H]2O)cc1
- pIC50 (RAW264.7 [3]): 4.17
- pEC50 [4]: 4.42

Compound: O=CN1CCc2cc(O)c(O)cc2C1
- Activity [5]: 31.27%
- Activity (RAW264.7 [6]): 31.63%
- Activity (RAW264.7 [7]): 20.9%
- Activity [8]: 24.18%

Compound: Oc1ccc([C@H]2NCCc3cc(O)c(O)cc32)cc1O
- pIC50 (Trypanosoma cruzi): 6.64
- pIC50 (Leishmania amazonensis): 6.80

Compound: O=C1NCCc2cc(O)c(O)cc21
- pEC50 [9]: 5.00

Compound: CC(=O)NCCc1cc(O)c(O)cc1C(=O)c1ccc(O)c(O)c1
- pIC50 [10]: 6.11

Compound: Cc1cncc(-c2ccc(O)c(O)c2)n1
- Activity (RAW264.7 [11]): 47.36%

Compound: O=C1N[C@@H](Cc2ccc(O)c(O)c2)C(=O)N2CCC[C@@H]12
- MIC (Staphylococcus aureus [12]): 256 µg/mL (≈ 927 µM)
- MIC (Staphylococcus aureus [13]): 256 µg/mL (≈ 927 µM)
- MIC (Staphylococcus aureus [14]): 256 µg/mL (≈ 927 µM)
- MIC (Nakaseomyces glabratus): 128 µg/mL
- EC50 [15]: 12.98 µg/mL (≈ 47 µM)
- EC50 [16]: 1.71 µg/mL (≈ 6.19 µM)

Compound: CC(=O)NCCc1cc(O)c(O)cc1[C@@H](NC(C)=O)C(=O)c1ccc(O)c(O)c1
- Activity [5]: 17.01%
- pIC50 [17]: 4.54
- pIC50 [18]: 4.75

Compound: O=C(/C=C/c1ccc(O)c(O)c1)N[C@@H](Cc1ccc(O)c(O)c1)C(=O)O
- Activity (RAW264.7 [19]): 80%

Compound: Oc1cc2c3c(c1O)c1cc4c(cc1c[n+]3CC2)OCO4
- pIC50 (CCF-STTG1): 5.03
- pIC50 [20]: 5.03
- pIC50 [21]: 5.03
- pIC50 (U-251): 5.03
- pIC50 (HL-60): 5.03
- pIC50 (SMMC-7721): 5.03
- pIC50 (SW480): 5.03
- Activity (RAW264.7 [22]): 96.5%

Compound: CC(=O)NCCc1ccc(NC(=O)c2ccc(O)c(O)c2)c(O)c1
- pIC50 [23]: 5.16
- pIC50 [24]: 4.91
